Assay results from publication PMC9144278, “Inclusion of a Phytomedicinal Flavonoid in Biocompatible Surface-Modified Chylomicron Mimic Nanovesicles with Improved Oral Bioavailability and Virucidal Activity: Molecular Modeling and Pharmacodynamic Studies” (Pharmaceutics, 2022).
≈ marks a conversion by molar mass, not a printed value. Read-outs that look alike come from different tables or passages of the source.

Assays:
[1] = cited from earlier work
[2] = Particle size, zeta potential and PDI by Zetasizer (dynamic laser scattering); type: physicochemical
Description: The MH-charged PCMs (0.10 mL) were admixed with distilled water (10.0 mL) in a glass culture tube and vortexed for 5 min. The particle sizes and their scattering surrounding the mean (including those of the pure-MH dispersion, shown in Supplementary Materials Figure S1) were determined at 25 °C using dynamic laser scattering with a 45 mm focus lens and a beam length of 2.4 mm. The same instrument was utilized for the ZP measurements of the electrophoretic mobility of the particles in the electric field.

[3] = Ex vivo drug gut-permeation study, noneverted gut sac technique; type: in vitro ADME, male Wistar rats; settings: rat intestine
Description: A comparative ex vivo intestinal transport study between the drug suspension and the optimized formula was conducted using the noneverted gut sac technique. […] The small intestine from each animal was then excised and sliced into sections 5 cm in length. The sections were then rinsed using normal saline. Krebs–Ringer solution (~2 mL) was utilized to irrigate the intestinal segments, followed by sac formation by closing the lower portion of the segments using a thread. Each sac was filled with a sample of the pure MH suspension (estimated to comprise 5.0 mg of MH) or with the optimized F9 formulation (estimated to comprise 5.0 mg of MH). Finally, each sac was allocated in an organ path packed with 50 mL of Krebs–Ringer solution after the lower portion of each sac was tightly sealed with a thread. […] CO2 mixture. […] To maintain a constant total volume, the organ path was compensated by the addition of equal volumes of fresh Krebs–Ringer solution after each sample for analysis had been withdrawn. The amounts of MH that had permeated through the intestinal segment were determined via HPLC using a Hitachi LaChrom Elite instrument equipped with a Model Series L-2000 organizer box, L-2300 column oven, L-2130 pump with built in degasser, Rheodyne 7725i injector with a […], and a L-2455 photodiode array detector (PAD). […]

Vero E6 cells = experiment: MTT cytotoxicity assay (TC50); type: cell-based, African green monkey; settings: 24 h
Description: Dulbecco’s Modified Eagle’s Medium (DMEM) was utilized for sample dilutions. The stock solutions of the investigated formulations were employed as solutions in 10% DMSO in double-distilled H2O. Cells were harvested in 96-well plates (100-µL/well at a density of 3 × 10^5 cells/mL) and were incubated for 24 h at 37 °C in 5% CO2. Afterwards, various amounts of the investigated compounds were added to the cells, and each experiment was performed in triplicate. After an extra 24 h, cell monolayers were dislodged from the supernatant and then rinsed 3 times with sterile phosphate buffer saline (PBS). MTT solution (20.0 µL of 5.00 mg/mL stock solution) was added into each well, and the cells were incubated for 4 h at 37 °C, followed by aspiration of the medium. […] The absorbances of the formazan solutions were assessed at λmax 540 vs. the 620 nm reference wavelength, using a multiwell plate reader. The cytotoxicity percentages related to the untreated cells were computed via GraphPad Prism software (version 7.01) using the following formula: %Cytotoxicity = (absorbance of cells without treatment − absorbance of cells with treatment) × 100 (absorbance of cells without treatment) […]

[4] = tested on: MERS-related coronavirus isolate NRCE-HKU270; experiment: microbe, parasite or virus in culture; type: cell-based, MERS-CoV
MERS-CoV = type: in vivo, C57BL/6 mice; settings: oral 10 mg/kg once daily
[5] = tested on: IFN-γ, TNF-α, IL-6, IL-4, SOD in BALF; parameters: species or system C57BL/6 mice; settings: mouse, in vivo, po, 10 mg/kg
lung tissue = tested on: lung tissue; parameters: species or system C57BL/6 mice; settings: mouse, in vivo
[6] = tested on: myeloperoxidase (MPO) and NF-κB; parameters: species or system C57BL/6 mice; settings: mouse, in vivo
[7] = Pharmacokinetic study after oral administration; settings: rat
[8] = male, Wistar albino, in vivo, po, 20 mg/kg

In the case of `NC(=O)N1c2ccccc2CC(=O)c2ccccc21` [oxycarbazepine], the pKa [1] is given as 10.7.
In the case of `O=c1c(O)c(-c2ccc(O)cc2O)oc2cc(O)cc(O)c12` [MH, 2′,3,4′,5,7-pentahydroxyflavone], the “particle sizes of MH dispersion” value ([2]; MH dispersion in PBS used for oral dosing) is reported as 672.3 ± 32.1, the PDI polydispersity index ([2]; mean ± SD (n = 3)) is reported as 0.576 ± 0.1 and the Papp at 90 min ([3]; male, Wistar, read-out: apparent permeability coefficient (APC) (converted)) is reported as 2.53 ×10⁻⁶ cm/s. For the same compound, the “flux (Jmax)” value ([3]; after 90 min) was 0.37 ± 0.018 μg/cm^2/min, the “concentration for 50% cell cytotoxicity (TC50)” value (Vero E6 cells) was 2.53 µg/mL and the “selectivity index (SI = CC50/EC50)” value [4] was 19.4. For the same compound, the EC50 ([4]; Middle East respiratory syndrome-related coronavirus, Vero C1008, read-out: EC50 antiviral activity) was 0.13 µg/mL (≈ 0.43 µM), the inhibition at 0.125 µg/mL ([4]; Middle East respiratory syndrome-related coronavirus, Vero C1008, read-out: inhibition efficacy (viral plaques)) was 48% and the “% plaque prohibition in lung homogenate” value (MERS-CoV; after 3 d postinfection) was 27.1%. For the same compound, the “% plaque prohibition in lung homogenate” value (MERS-CoV; after 6 d postinfection) was 44.8%, the “IFN-γ level in BALF” value [5] was 82.7 ± 7.51 pg/mg protein and the “IL-4 level in BALF” value [5] was 23.5 ± 2.10 pg/mg protein. The “IL-6 level in BALF” value [5] was 112.9 ± 14.6 pg/mg protein, the “SOD level in BALF” value [5] was 2.2 ± 0.35 U/mg protein and the “TNF-α level in BALF” value [5] was 57.4 ± 6.2 pg/mg protein. The “effect on lung pathological alterations” value (lung tissue) was “marked suppression in all of those alterations”, the “effect on MPO and NF-κB protein expression in lung” value [6] was “markedly suppressed the protein expression compared with the infected group” and the AUC(0-inf) [7, 8] was 77000 ± 22000 ng·h/mL. It also gave a Tmax [7, 8] of 2 h, an AUC(0-t) ([7]; male, Wistar albino, in vivo, po, 20 mg/kg, AUC0–24, rat, 20 mg/kg MH, n = 6) of 56100 ± 16200 ng·h/mL and a Cmax ([7]; male, Wistar albino, in vivo, po, 20 mg/kg, Cmax, 20 mg/kg MH, n = 6) of 4820 ± 840 ng/mL. For the same compound, the “AUC0–24” value ([7]; oral, 20 mg/kg MH, n = 6, listed as Morin Hydrate Dispersion) was 56000 ± 16000 ng·h/mL.
